Source: paper PMC7734625, “Stabilization Strategies for Linear Minigastrin Analogues: Further Improvements via the Inclusion of Proline into the Peptide Sequence” (Journal of Medicinal Chemistry, 2020)
Like-named read-outs stand apart in the source and are kept apart here. One block for each molecule: values may come before it. Non-standard residues stand in square brackets, D forms with d. Residues, ends and D or L forms follow the SMILES beside them. *: point of attachment. DOTA = O=C(O)CN1CCN(CC(=O)O)CCN(CC(=O)*)CCN(CC(=O)O)CC1; 1Nal = N[C@@H](Cc1cccc2ccccc12)C(=O)O; NMeNle = CCCC[C@H](NC)C(=O)O

Experiment: biodistribution in A431-CCK2R/A431-mock xenografted BALB/c nude mice
Format: in vivo
Settings: female, athymic BALB/c nude, mouse, iv, total radioactivity; for tissue to tissue ratio at 4 h / tissue uptake at 4 h: 4 h p.i.; for tissue uptake at 12 h / tissue to tissue ratio at 12 h: 12 h p.i.
Experimental: Biodistribution studies evaluating the tumor uptake of the radiolabeled peptides were performed in 7- to 9-week-old female athymic BALB/c nude mice (Charles River, Sulzfeld, Germany). For the induction of tumor xenografts, 150 μL of DMEM containing 2 × 10^6 A431-CCK2R and A431-mock cells were injected subcutaneously in the right and left flank of each mouse, respectively. And 10–14 days after injection, tumors reached a medium weight of ∼0.25 g. The mice were divided into groups of four and injected intravenously via a lateral tail vein with 0.2 MBq of ^111In-labeled compound (0.02 nmol) and 0.7 and 1.5 MBq of the ^177Lu-labeled compound (0.02 and 0.15 nmol). At 4 and 12 h p.i., the mice were sacrificed and the tumors and other tissues (blood, lung, heart, muscle, spleen, intestine, liver, kidneys, stomach, and pancreas) were removed, weighed, and their radioactivity measured in the γ counter together with the rest of the body. Initial biodistribution studies were performed with the three ^177Lu-labeled CCK2R-targeting ligands at an injected peptide amount of 20 pmol for the time point of 4 h p.i. From these studies, two peptide analogues were selected to further characterize the biodistribution profile also at a later time point of 12 h p.i. and at a higher injected peptide amount of 150 pmol. Additional animal studies were performed for the ^111In-labeled conjugates. Percentage of injected activity per gram tissue (%IA/g), tumor-to-organ activity ratios, as well as whole body activity were calculated for each sample and statistical analysis using independent two-population t-test (significance level p < 0.05) was performed using Origin software. For the comparison of more than two groups, data were analyzed using one-way analysis of variance (ANOVA) Holm–Bonferroni-adjusted post hoc analysis (significance level p < 0.05) using Microsoft Excel 2010 software (Microsoft Excel 2010, Microsoft Corporation, WA).

[1] = A431-CCK2R xenograft tumor / blood, 20 pmol, 20 pmol, read-out: tumor-to-blood ratio
[2] = A431-CCK2R xenograft tumor / kidney, 20 pmol, 20 pmol, read-out: tumor-to-kidney ratio
[3] = A431-CCK2R xenograft tumor / liver, 20 pmol, 20 pmol, read-out: tumor-to-liver ratio
[4] = A431-CCK2R xenograft tumor / stomach, 20 pmol, 20 pmol, read-out: tumor-to-stomach ratio
[5] = A431-CCK2R xenograft tumor, 20 pmol, 20 pmol, read-out: tumor uptake in A431-CCK2R xenografts
[6] = A431-CCK2R xenograft tumor, 150 pmol, 150 pmol, read-out: tumor uptake in A431-CCK2R xenografts
[7] = A431-mock xenograft tumor, 20 pmol, 20 pmol, read-out: uptake in A431-mock xenografts
[8] = blood, 20 pmol, 20 pmol, read-out: uptake in blood
[9] = heart, 20 pmol, 20 pmol, read-out: uptake in heart
[10] = intestine, 20 pmol, 20 pmol, read-out: uptake in intestine
[11] = intestine, 150 pmol, 150 pmol, read-out: uptake in intestine
[12] = kidney, 20 pmol, 20 pmol, read-out: uptake in kidney
[13] = kidney, 150 pmol, 150 pmol, read-out: uptake in kidney
[14] = liver, 20 pmol, 20 pmol, read-out: uptake in liver
[15] = liver, 150 pmol, 150 pmol, read-out: uptake in liver
[16] = lung, 20 pmol, 20 pmol, read-out: uptake in lung
[17] = lung, 150 pmol, 150 pmol, read-out: uptake in lung
[18] = muscle, 20 pmol, 20 pmol, read-out: uptake in muscle
[19] = muscle, 150 pmol, 150 pmol, read-out: uptake in muscle
[20] = pancreas, 20 pmol, 20 pmol, read-out: uptake in pancreas
[21] = pancreas, 150 pmol, 150 pmol, read-out: uptake in pancreas
[22] = spleen, 20 pmol, 20 pmol, read-out: uptake in spleen
[23] = stomach, 20 pmol, 20 pmol, read-out: uptake in stomach
[24] = stomach, 150 pmol, 150 pmol, read-out: uptake in stomach
[25] = tumor/blood, 20 pmol, 20 pmol, read-out: tumor-to-blood ratio
[26] = tumor/blood, 150 pmol, 150 pmol, read-out: tumor-to-blood ratio
[27] = tumor/kidney, 20 pmol, 20 pmol, read-out: tumor-to-kidney ratio
[28] = tumor/kidney, 150 pmol, 150 pmol, read-out: tumor-to-kidney ratio
[29] = tumor/liver, 20 pmol, 20 pmol, read-out: tumor-to-liver ratio
[30] = tumor/liver, 150 pmol, 150 pmol, read-out: tumor-to-liver ratio
[31] = tumor/stomach, 20 pmol, 20 pmol, read-out: tumor-to-stomach ratio
[32] = tumor/stomach, 150 pmol, 150 pmol, read-out: tumor-to-stomach ratio

tissue to tissue ratio at 4 h [1]: 540 ± 103 | tissue to tissue ratio at 4 h [2]: 10 | tissue to tissue ratio at 4 h [3]: 83.3 ± 23 | tissue to tissue ratio at 4 h [4]: 5 | tissue uptake at 4 h [5]: 34.7 ± 9.4 %ID/g | tissue uptake at 12 h [5]: 23.4 ± 8.64 %ID/g | tissue uptake at 4 h [6]: 16.7 ± 1.48 %ID/g | tissue uptake at 4 h [7]: 0.32 ± 0.14 %ID/g | tissue uptake at 12 h [7]: 0.11 ± 0.02 %ID/g | tissue uptake at 4 h [8]: 0.07 ± 0.02 %ID/g | tissue uptake at 12 h [8]: 0.01 %ID/g | tissue uptake at 4 h [9]: 0.09 ± 0.01 %ID/g | tissue uptake at 12 h [9]: 0.05 ± 0.01 %ID/g | tissue uptake at 4 h [10]: 1.14 ± 0.51 %ID/g | tissue uptake at 12 h [10]: 0.24 ± 0.02 %ID/g | tissue uptake at 4 h [11]: 0.61 ± 0.13 %ID/g | tissue uptake at 4 h [12]: 3.97 ± 1.31 %ID/g | tissue uptake at 12 h [12]: 3.12 ± 1.05 %ID/g | tissue uptake at 4 h [13]: 4.04 ± 0.82 %ID/g | tissue uptake at 4 h [14]: 0.42 ± 0.06 %ID/g | tissue uptake at 12 h [14]: 0.32 ± 0.09 %ID/g | tissue uptake at 4 h [15]: 0.49 ± 0.12 %ID/g | tissue uptake at 4 h [16]: 0.14 ± 0.05 %ID/g | tissue uptake at 12 h [16]: 0.11 ± 0.07 %ID/g | tissue uptake at 4 h [17]: 0.15 ± 0.07 %ID/g | tissue uptake at 4 h [18]: 0.06 ± 0.05 %ID/g | tissue uptake at 12 h [18]: 0.02 ± 0.01 %ID/g | tissue uptake at 4 h [19]: 0.05 ± 0.03 %ID/g | tissue uptake at 4 h [20]: 2.09 ± 0.84 %ID/g | tissue uptake at 12 h [20]: 0.76 ± 0.13 %ID/g | tissue uptake at 4 h [21]: 0.35 ± 0.06 %ID/g | tissue uptake at 4 h [22]: 0.18 ± 0.04 %ID/g | tissue uptake at 12 h [22]: 0.13 ± 0.03 %ID/g | tissue uptake at 4 h [23]: 7.37 ± 2.26 %ID/g | tissue uptake at 12 h [23]: 4.18 ± 0.72 %ID/g | tissue uptake at 4 h [24]: 1.26 ± 0.5 %ID/g | tissue to tissue ratio at 12 h [25]: 2440 ± 1780 | tissue to tissue ratio at 4 h [26]: 294 ± 137 | tissue to tissue ratio at 12 h [27]: 8.14 ± 4.06 | tissue to tissue ratio at 4 h [28]: 4.25 ± 0.88 | tissue to tissue ratio at 12 h [29]: 76.8 ± 34.4 | tissue to tissue ratio at 4 h [30]: 35.9 ± 9.9 | tissue to tissue ratio at 12 h [31]: 5.54 ± 1.44 | tissue to tissue ratio at 4 h [32]: 14.9 ± 5.6
SMILES: CCCC[C@@H](C(=O)N[C@@H](CC(=O)O)C(=O)N[C@@H](Cc1cccc2ccccc12)C(N)=O)N(C)C(=O)[C@H](Cc1c[nH]c2ccccc12)NC(=O)CNC(=O)[C@H](Cc1ccc(O)cc1)NC(=O)[C@@H]1CCCN1C(=O)[C@@H](CCC(=O)O)NC(=O)CN1CCN(CC(=O)O)CCN(CC(=O)O)CCN(CC(=O)O)CC1 [[^177Lu]Lu-1, metal not drawn] ({DOTA}-[dE]PYGW[NMeNle]D[1Nal]-NH2)

tissue to tissue ratio at 4 h [1]: 429 ± 134 | tissue to tissue ratio at 4 h [2]: 6.51 ± 2.29 | tissue to tissue ratio at 4 h [3]: 80.6 ± 26.5 | tissue to tissue ratio at 4 h [4]: 7.31 ± 1.84 | tissue uptake at 4 h [5]: 33.2 ± 6.34 %ID/g | tissue uptake at 12 h [5]: 25 ± 4.92 %ID/g | tissue uptake at 4 h [6]: 17.2 ± 5.98 %ID/g | tissue uptake at 4 h [7]: 0.25 ± 0.06 %ID/g | tissue uptake at 12 h [7]: 0.15 ± 0.03 %ID/g | tissue uptake at 4 h (A431-mock xenograft tumor, 150 pmol, 150 pmol, read-out: uptake in A431-mock xenografts): 0.33 ± 0.05 %ID/g | tissue uptake at 4 h [8]: 0.08 ± 0.01 %ID/g | tissue uptake at 12 h [8]: 0.01 %ID/g | tissue uptake at 4 h (blood, 150 pmol, 150 pmol, read-out: uptake in blood): 0.09 ± 0.01 %ID/g | tissue uptake at 4 h [9]: 0.09 ± 0.01 %ID/g | tissue uptake at 12 h [9]: 0.05 ± 0.01 %ID/g | tissue uptake at 4 h (heart, 150 pmol, 150 pmol, read-out: uptake in heart): 0.15 ± 0.05 %ID/g | tissue uptake at 4 h [10]: 0.56 ± 0.1 %ID/g | tissue uptake at 12 h [10]: 0.19 ± 0.02 %ID/g | tissue uptake at 4 h [11]: 0.55 ± 0.08 %ID/g | tissue uptake at 4 h [12]: 5.53 ± 1.51 %ID/g | tissue uptake at 12 h [12]: 3.37 ± 0.17 %ID/g | tissue uptake at 4 h [13]: 7.88 ± 1.26 %ID/g | tissue uptake at 4 h [14]: 0.43 ± 0.08 %ID/g | tissue uptake at 12 h [14]: 0.27 ± 0.03 %ID/g | tissue uptake at 4 h [15]: 0.79 ± 0.19 %ID/g | tissue uptake at 4 h [16]: 0.17 ± 0.01 %ID/g | tissue uptake at 12 h [16]: 0.08 ± 0.01 %ID/g | tissue uptake at 4 h [17]: 0.25 ± 0.04 %ID/g | tissue uptake at 4 h [18]: 0.06 ± 0.03 %ID/g | tissue uptake at 12 h [18]: 0.02 %ID/g | tissue uptake at 4 h [19]: 0.1 ± 0.09 %ID/g | tissue uptake at 4 h [20]: 1.21 ± 0.49 %ID/g | tissue uptake at 12 h [20]: 0.82 ± 0.06 %ID/g | tissue uptake at 4 h [21]: 0.73 ± 0.55 %ID/g | tissue uptake at 4 h [22]: 0.16 ± 0.01 %ID/g | tissue uptake at 12 h [22]: 0.13 ± 0.01 %ID/g | tissue uptake at 4 h (spleen, 150 pmol, 150 pmol, read-out: uptake in spleen): 0.28 ± 0.08 %ID/g | tissue uptake at 4 h [23]: 4.68 ± 0.93 %ID/g | tissue uptake at 12 h [23]: 4.12 ± 0.82 %ID/g | tissue uptake at 4 h [24]: 1.02 ± 0.45 %ID/g | tissue to tissue ratio at 12 h [25]: 2000 ± 750 | tissue to tissue ratio at 4 h [26]: 188 ± 80 | tissue to tissue ratio at 12 h [27]: 7.41 ± 1.33 | tissue to tissue ratio at 4 h [28]: 2.23 ± 0.87 | tissue to tissue ratio at 12 h [29]: 131 ± 37 | tissue to tissue ratio at 4 h [30]: 22.8 ± 10 | tissue to tissue ratio at 12 h [31]: 6.15 ± 1.12 | tissue to tissue ratio at 4 h [32]: 12.7 ± 4.9
SMILES: CCCC[C@@H](C(=O)N[C@@H](CC(=O)O)C(=O)N[C@@H](Cc1cccc2ccccc12)C(N)=O)N(C)C(=O)[C@H](Cc1c[nH]c2ccccc12)NC(=O)CNC(=O)[C@@H]1CCCN1C(=O)[C@H](Cc1ccc(O)cc1)NC(=O)[C@@H](CCC(=O)O)NC(=O)CN1CCN(CC(=O)O)CCN(CC(=O)O)CCN(CC(=O)O)CC1 [[^177Lu]Lu-2, metal not drawn] ({DOTA}-[dE]YPGW[NMeNle]D[1Nal]-NH2)
